# Experimental data reported in patent US11247996B2, “Small molecule inhibitors for transcription factors” (University of Massachusetts, priority 2016, dated 2022).
# Legend:
# [1] = tested on: latent HIV-1 in CD8-depleted PBMCs; details: JQ1 in combination with bryostatin-1, earlier reports; cited from earlier work
# [2] = tested on: latent HIV-1 89.6 strain in THP89GFP cells; experiment: Flow cytometry on THP89GFP monocytic latency cells; format: cell-based; details: UMB-136 5 μM, JQ1 1 μM, 24 hours
# Experimental: (§1) The CD4+ T-lymphoid cell lines included Jurkat, J-Lat A2 (harboring an LTR-Tat-IRES-GFP construct), J-Lat 6.3, 8.4, 9.2, 10.4 (containing a full-length integrated HIV-1 genome with a defective envelop, that express GFP upon activation). Monocytic THP89GFP cells were provided by David Levy (New York University). Jurkat cells were cultured in RPMI with 10% FBS. THP89GFP and Primary CD4+ helper T cells (Sanguine Biosciences, Sherman Oaks, Calif. and Lonza Group Ltd., Basel, Switzerland) were cultured and maintained respectively in complete medium (RPMI 1640 with 10% FBS, lx glutamine, lx MEM non-essential amino acid solution, and 20 mM HEPES).
# (§2) The HIV-1 latency-reversing effect of UMB-136 was evaluated on different reservoirs (lymphocytes and macrophages), J-Lat cell clones (6.3, 8.4, 9.2, and 10.4) and THP89GFP were treated with DMSO, JQ1 (1 μM), or UMB-136 (2.5, 5 μM for J-Lat cells, 5 μM for THP89GFP). For the investigation of synergistic effects JLat clones were treated with UMB-136 (2.5 μM), JQ1 (1 μM), SAHA (0.5 μM) or prostratin (1 μM) or DMSO as a control. Drugs were used alone or in combination. Flow cytometry was conducted at 24 hours post treatment and GFP-positive cells were quantified.
# (§3) All flow cytometry assays were conducted using an Accuri C6 Flow Cytometer (Accuri, Ann Arbor, Mich.). […]
# [3] = tested on: latent HIV-1 in J-Lat clones (6.3, 8.4, 9.2, and 10.4); experiment: Flow cytometry on J-Lat full-length (dEnv) clones, single LRA; format: cell-based; details: J-Lat 6.3, 8.4, 9.2, 10.4; UMB-136 2.5 and 5 (printed PM), JQ1 1 μM; 24 hours
# Experimental: as §1, §2, §3
# [4] = tested on: latent HIV-1 in non-polarized, memory CD4+ T cells; experiment: Primary CD4+ T cell model of HIV-1 latency (blood or tonsil); format: cell-based; details: primary CD4+ T cells from blood or lymph node (tonsil), two donors; compound alone
# Experimental: To acquire primary CD4+ T cells, primary CD4+ T cells were isolated from either lymphoid tissue (tonsil) or from the peripheral blood of two donors. Tonsils were isolated from HIV-negative donors, with obstructive sleep apnea (OSA), whom required surgical removal of their tonsils. Isolation of tonsillar mononuclear cells (TMC) was performed as described in Johnston et al. Curr Protoc Immunol Chapter 7, Unit 7-8. In brief, fresh, healthy tonsils kept in ice-cold 1× Hank's Balanced Salt Solution (HBSS) with antibiotics (100 U/mL penicillin, 100 ug/mL streptomycin, 5 ug/mL gentamicin, 0.5 ug/mL amphotericin) were cut into 3- to 10-mm fragments with scalpels then pushed through a 3-inch stainless steel sieve using the flat end of a 5-mL plastic syringe plunger. […]
# The LRA effect of UMB-136 was studied by modifying slightly a primary CD4+ T cell model of HIV-1 latency as described in Bosque et al. Methods. […] On day 21, 5 days post treatment, the supernatant was collected for quantification of newly produced viruses using the Lent-X™ qRT-PCR Titration Kit (Clontech, Mountain View, Calif.) following the manufacturer's instructions.
# [5] = tested on: full-length HIV-1 NL4-3 (X4) viruses in Jurkat cells; experiment: Viral production in full-length HIV-1 NL4-3 infected Jurkat cells (qRT-PCR of medium); format: cell-based; details: full replication competent NL4-3 infected Jurkat cells, 24 hours
# Experimental: To determine the effect of UMB-136 on HIV-1 replication, Jurkat cells were infected with full-length HIV-1 NL4-3 (X4) viruses for 8 hours before being treated with compounds (UMB-136, JQ1, or prostratin) for 24 hours. The medium was collected and subjected to viral RNA extraction, reverse transcription, and qPCR assays by using Lenti-X™ qRT-PCR Titration Kit (Clontech, Mountain View, Calif.) following the manufacturer's instructions.
# [6] = tested on: latent HIV-1 in J-Lat clones (6.3, 8.4, 9.2, and 10.4); experiment: LRA combinations in J-Lat clones (flow cytometry, Bliss independence model); format: cell-based; details: for Synergy in reversing HIV-1, combination with prostratin: +prostratin 1 μM
# Experimental: as §2
# (§4) All flow cytometry assays were conducted using an Accuri C6 Flow Cytometer (Accuri, Ann Arbor, Mich.). Cell debris and aggregates were excluded by gating on the Forward Scatter (FS) and Side Scatter (SS) parameters.
# [7] = tested on: latent HIV-1 in J-Lat A2 cells; experiment: HIV-1 latency-reversing flow cytometry assay in J-Lat A2 cells; format: cell-based; details: 5 μM; for HIV-1 reactivation (GFP-positive cells): 24 hours post treatment
# Experimental: as §1
# Wells were treated with 5 μM of compound or dimethyl sulfoxide (DMSO). GFP-positive cells were acquired and analyzed by flow cytometry at 24 hours post treatment.
# as §4
# TAF1 = TAF1 (Homo sapiens, UniProt P21675); details: McKeown et al., J Med Chem, 2014; cited from earlier work
# Chain of TAF1 (P21675 whole entry): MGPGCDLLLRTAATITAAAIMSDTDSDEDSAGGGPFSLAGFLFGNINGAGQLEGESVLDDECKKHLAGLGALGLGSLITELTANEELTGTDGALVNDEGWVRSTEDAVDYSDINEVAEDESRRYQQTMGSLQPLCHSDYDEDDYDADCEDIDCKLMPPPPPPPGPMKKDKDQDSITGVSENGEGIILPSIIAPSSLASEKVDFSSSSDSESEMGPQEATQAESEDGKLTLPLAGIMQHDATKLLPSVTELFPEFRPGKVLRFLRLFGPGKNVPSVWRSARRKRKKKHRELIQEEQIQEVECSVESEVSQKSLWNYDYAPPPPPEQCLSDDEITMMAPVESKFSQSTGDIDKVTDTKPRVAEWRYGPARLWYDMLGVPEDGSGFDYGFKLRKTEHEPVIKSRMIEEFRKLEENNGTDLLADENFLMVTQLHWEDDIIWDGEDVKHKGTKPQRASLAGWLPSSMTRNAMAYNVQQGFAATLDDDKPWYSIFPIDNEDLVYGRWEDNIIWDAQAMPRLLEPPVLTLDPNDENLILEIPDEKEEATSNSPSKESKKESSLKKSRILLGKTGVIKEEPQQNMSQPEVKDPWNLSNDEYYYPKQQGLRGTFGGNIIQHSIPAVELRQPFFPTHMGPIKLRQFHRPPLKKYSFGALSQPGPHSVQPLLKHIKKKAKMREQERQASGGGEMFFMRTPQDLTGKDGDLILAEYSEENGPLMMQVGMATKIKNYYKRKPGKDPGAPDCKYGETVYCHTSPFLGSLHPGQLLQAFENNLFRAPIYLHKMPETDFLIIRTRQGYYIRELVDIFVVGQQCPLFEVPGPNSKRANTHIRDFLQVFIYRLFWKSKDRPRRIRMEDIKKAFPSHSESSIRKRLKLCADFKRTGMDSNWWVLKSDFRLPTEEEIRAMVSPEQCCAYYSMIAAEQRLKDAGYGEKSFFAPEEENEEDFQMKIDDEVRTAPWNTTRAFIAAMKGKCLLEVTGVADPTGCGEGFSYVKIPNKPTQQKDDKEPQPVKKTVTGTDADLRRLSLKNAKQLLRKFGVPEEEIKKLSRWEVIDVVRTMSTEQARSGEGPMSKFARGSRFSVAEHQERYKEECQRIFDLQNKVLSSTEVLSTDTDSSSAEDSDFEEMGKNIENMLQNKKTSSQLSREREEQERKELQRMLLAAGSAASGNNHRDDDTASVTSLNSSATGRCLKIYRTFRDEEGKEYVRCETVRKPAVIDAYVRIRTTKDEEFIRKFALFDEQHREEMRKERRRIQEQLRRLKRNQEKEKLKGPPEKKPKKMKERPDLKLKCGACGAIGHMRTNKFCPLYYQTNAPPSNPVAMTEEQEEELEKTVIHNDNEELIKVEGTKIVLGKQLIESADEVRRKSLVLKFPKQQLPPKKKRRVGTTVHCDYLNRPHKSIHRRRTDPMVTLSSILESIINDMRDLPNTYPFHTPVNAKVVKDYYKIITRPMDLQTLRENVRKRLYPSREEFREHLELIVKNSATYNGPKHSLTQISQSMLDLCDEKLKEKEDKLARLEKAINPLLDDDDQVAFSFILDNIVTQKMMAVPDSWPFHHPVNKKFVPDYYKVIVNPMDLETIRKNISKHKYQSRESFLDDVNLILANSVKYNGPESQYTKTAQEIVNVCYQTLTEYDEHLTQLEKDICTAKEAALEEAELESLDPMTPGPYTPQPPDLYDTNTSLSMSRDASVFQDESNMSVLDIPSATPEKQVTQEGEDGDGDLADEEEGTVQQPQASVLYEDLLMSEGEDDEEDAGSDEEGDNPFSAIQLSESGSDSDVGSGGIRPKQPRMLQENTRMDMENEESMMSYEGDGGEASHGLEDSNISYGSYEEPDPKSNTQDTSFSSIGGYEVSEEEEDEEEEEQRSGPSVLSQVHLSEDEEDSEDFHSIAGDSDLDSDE
# BRD4 = BRD4 (Homo sapiens, UniProt O60885); details: McKeown et al., J Med Chem, 2014; cited from earlier work
# [8] = tested on: VSV-G pseudo-typed HIV-1 NL4-3-Luciferase virus infected Jurkat cells; format: cell-based
# P-TEFb (CCNT1) and Tat = experiment: Tat-Flag immunoprecipitation in HeLa cells, Cyclin T1 immunoblot; format: cell-based; details: 2.5 μM, 24 hours
# Experimental: Tat-Flag expressing HeLa cells were treated with UMB-136 (2.5 μM) or DMSO for 24 hours, then incubated with Magnetic Flag Conjugated beads (Clontech, Mountain View, Calif.) at 4° C. for overnight with orbital rocking. Beads were washed and boiled, then immunoblotting was performed using Cyclin T1 antibody (Santa Cruz Biotechnology, Dallas, Tex.).
# Jurkat cells = details: human, 24 h, 2.5 μM
# Experimental: Cell viability assays were performed by culturing Jurkat cells in a 48-well plate at 1×10^5 cells per well in a total volume of 250 μl RPMI media with 10% FBS. […] After an incubation period of 24 hours, cells were lysed. The total ATP content was measured using Cell Titer Glo (Promega Corporation, Madison, Wis.).
# BRD2 = biological target: T1, BRD2 (Homo sapiens, UniProt P25440); experiment: Pull-down with biotinylated UMB-136 from HEK293 cell lysate, BRD2 immunoblot; format: binding; details: biotinylated UMB-136, HEK293 cell lysate
# T1 construct: endogenous in cells; host or cells: HEK293
# T1 sequence (P25440 whole entry): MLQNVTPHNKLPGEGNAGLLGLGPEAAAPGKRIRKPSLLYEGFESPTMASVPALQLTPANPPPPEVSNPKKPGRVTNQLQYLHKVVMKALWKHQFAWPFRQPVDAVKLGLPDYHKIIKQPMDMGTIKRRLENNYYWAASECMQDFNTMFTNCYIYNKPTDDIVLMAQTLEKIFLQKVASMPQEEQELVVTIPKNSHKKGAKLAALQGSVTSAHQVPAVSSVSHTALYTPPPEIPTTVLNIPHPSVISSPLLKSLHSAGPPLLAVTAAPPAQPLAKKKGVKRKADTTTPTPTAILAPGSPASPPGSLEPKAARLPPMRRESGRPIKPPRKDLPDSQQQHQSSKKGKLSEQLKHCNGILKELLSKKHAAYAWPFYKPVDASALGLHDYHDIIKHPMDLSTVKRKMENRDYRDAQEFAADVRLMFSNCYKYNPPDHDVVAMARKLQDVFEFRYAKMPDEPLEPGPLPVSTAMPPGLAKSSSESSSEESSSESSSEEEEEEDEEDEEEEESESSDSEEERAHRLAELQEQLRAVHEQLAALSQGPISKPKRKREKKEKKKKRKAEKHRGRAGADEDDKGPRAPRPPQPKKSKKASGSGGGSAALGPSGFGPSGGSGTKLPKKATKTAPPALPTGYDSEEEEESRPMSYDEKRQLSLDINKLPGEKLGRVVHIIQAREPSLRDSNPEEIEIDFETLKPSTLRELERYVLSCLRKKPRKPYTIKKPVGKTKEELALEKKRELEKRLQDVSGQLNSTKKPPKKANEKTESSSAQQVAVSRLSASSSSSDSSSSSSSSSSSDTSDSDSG
# Experimental: (§5) Pull-down and Immunoprecipitation (IP) assays were performed by incubating HEK293 cell lysate with either biotinylated UMB-136 or biotin in DMSO at 4° C. overnight with orbital rocking. MyOne™ Streptavidin T1 Dynabeads™ (Invitrogen, Carlsbad, Calif.) were added to the mixture which was then incubated for 2 hours. Beads were washed and then boiled to elute precipitated proteins, which were subjected to immunoblotting using BRD4 antibody (Bethyl Laboratories, Inc., Montgomery, Tex.) or BRD2 antibody (Santa Cruz Biotechnology, Dallas, Tex.).
# primary CD4+ T cells = experiment: Cytokine release in primary CD4+ T cells from healthy donor; format: cell-based
# CD8-depleted PBMCs = experiment: Cell death due to LRA treatments in CD8-depleted PBMCs; format: cell-based; details: compared with JQ1 combinations
# endogenous BRD4 = biological target: T2, endogenous BRD4 (Homo sapiens, UniProt O60885); experiment: Pull-down with biotinylated UMB-136 from HEK293 cell lysate, BRD4 immunoblot; format: binding; details: biotinylated UMB-136, HEK293 cell lysate
# T2 construct: endogenous in cells; host or cells: HEK293
# Experimental: as §5
# [9] = tested on: latent HIV-1 in CD8-depleted PBMCs; experiment: Ex vivo latency reversal in CD8-depleted PBMCs of cART-treated aviremic patients (nested qPCR); format: cell-based
# [10] = J-Lat clones, Bliss independence model
compound,measurement,setting,value
"Cc1sc2c(c1C)C(c1ccc(Cl)cc1)=N[C@@H](CC(=O)OC(C)(C)C)c1nnc(C)n1-2 [JQ1, reference compound]","Reversal of HIV-1 latency, combination with bryostatin-1 (reported)",[1],potently reverse HIV-1 latency
same,Reactivation of latent HIV-1,[2],did not
same,Reversal of HIV-1 latency (GFP-positive cells),[3],no observable effect
same,Reactivation of latent virus,[4],fails to do so
same,Viral production,[5],did not
same,"Reactivation of latent HIV-1, combination with SAHA","[6]; J-Lat cell clones, JQ1+SAHA combination",minimally reactivates latent HIV-1
same,"Synergy in reversing HIV-1, combination with prostratin",[6]; [10],significantly synergizes with prostratin
Cc1noc(C)c1-c1ccc(-c2nc3cnccn3c2NC(C)(C)C)cc1 [UMB-32],HIV-1 reactivation (GFP-positive cells),[7],significantly induced HIV-1 reactivation
same,Binding to TAF1,TAF1,strongly binds
same,Binding to BRD4,BRD4,strongly binds
same,Inhibition of target binding of BRD4,BRD4,potently inhibits the target binding of BRD4
COc1cc(-c2c(C)noc2C)ccc1-c1nc2cnccn2c1NC1CCCCC1 [UMB-136],HIV-1 transcriptional initiation and elongation,[8],enhances both transcriptional initiation and elongation of HIV-1
same,Protein association between P-TEFb (CCNT1) and Tat,P-TEFb (CCNT1) and Tat,greater protein association between P-TEFb (CCNT1) and Tat
same,Cell viability,Jurkat cells,same viability as 1 μM of JQ1
same,HIV-1 latency-reversing potency relative to other UMB compounds,[7]; 24 hours,most effective of all
same,HIV-1 reactivation (GFP-positive cells),[7],significantly induced HIV-1 reactivation
same,Binding to BRD2 (pull-down),BRD2,not BRD2
same,Reactivation of latent HIV-1,[2],substantial reactivation
same,Reversal of HIV-1 latency (GFP-positive cells),[3],dramatically reversed HIV-1 latency
same,Reactivation of latent virus,[4],efficiently reactivated latent virus
same,Cytokine release,primary CD4+ T cells,does not induce cytokine release
same,Viral production,[5],enhanced viral production
same,Cytotoxicity (cell death) of combinations with prostratin/bryostatin-1,CD8-depleted PBMCs,less cytotoxicity than JQ1 and prostratin/bryostatin-1 combinations
same,Binding to endogenous BRD4 (pull-down),endogenous BRD4,binds to endogenous BRD4
same,"Viral reactivation, combination with bryostatin-1, compared with JQ1+bryostatin-1",[9],even greater viral reactivation
same,"Reversal of HIV-1 latency, combination with PKC agonists (prostratin or bryostatin-1)","[9]; CD8-depleted PBMCs, UMB-136 2.5 μM, prostratin 250 nM or bryostatin-1 10 nM, 48 hours",observed to reverse HIV-1 latency
same,"Synergy in reversing HIV-1, combination with SAHA","[6]; J-Lat clones, Bliss independence model, +SAHA 0.5 μM",statistically significant synergistic effect
same,"Synergy in reversing HIV-1, combination with prostratin",[6]; [10],statistically significant synergistic effect
same,"HIV-1 reactivation in combination with SAHA or prostratin, compared with JQ1 combination","[6]; J-Lat clones, UMB-136 2.5 μM, SAHA 0.5 μM, prostratin 1 μM",greater effect of HIV-1 reactivation than its JQ1 counterpart
